Reference: US20100016352A1, “COMPOUNDS AND METHODS FOR TREATING ESTROGEN RECEPTOR-RELATED DISEASES” (priority 2008, published 2010)

Key:
[1] = test system: Human Breast Cancer BCAP-37 Cells xenografts; assay: In vivo efficacy in inhibiting growth of human breast cancer BCAP-37 cells xenografts in nude mice; settings: Mus musculus, Bcap37, po, 360 h; female nude mice, BCAP-37 xenograft, 35 mg/kg fed once every day for 15 days, tumor weight vs olive oil negative control; read-out: Inhibition rate of tumor growth (%)
Procedure: The In Vivo Efficacy in Inhibiting Growth of Human Breast Cancer BCAP-37 Cells Xenografts in Nude Mice Model
Nude mice with breast cancer xenografts are treated with the test compounds 5, 6, 8, 14, 22, 36 and 38 to test their effect on inhibiting tumor growth. Tumor tissues are taken from nude mice bearing BCAP-37 breast cancer and cut into small pieces. Several pieces of the tumor tissues are implanted into the armpit under the right front limb of female nude mice. After the implantation, the mice are fed with E2β solution once every day at the dosage of 7 μg per mouse for 6 days to stimulate tumor growth in the receiving mice. Starting on the seventh day, the mice are fed with the test compounds at the dosage of 35 mg/kg. Tamoxifen is used as a positive control. Olive oil is used as a negative control. The test compounds are prepared as an olive oil solution (20 mg/mL). The mice are given the test compounds and Tamoxifen at the dosage of 35 mg/kg or olive oil once every day for 15 days. Then the mice are sacrificed and the tumor tissues are dissected from the mice and weighed. The tumor growth inhibition rate is a percentage calculated using the formula: tumor growth inhibition rate=(average weight of the tumor in the negative control−average weight of the tumor treated with test compound)/average weight of the tumor in the negative control.

MCF7 cells = assay: Cell apoptosis assay in ER-positive breast cancer MCF7 cells (cell number after treatment); format: cell-based, human; settings: 10 days
From the text: Cell Apoptosis Assay in ER-Positive Breast Cancer MCF7 Cells
MCF7 cell line is a breast cancer cell line that strongly expresses ER-α66, ER-α46 and ER-α36 (Relevance of breast cancer cell lines as models for breast tumours: an update. Marc Lacroix, Guy Leclercq, Breast Cancer Research and Treatment (2004) 83, 249-289; Wang et al., Proc. Natl. Acad. Sci. U.S.A. 103:9063-9068 (2006)). MCF7 cells obtained from ATCC are maintained in DMEM/F12 medium (Invitrogen) supplemented with 10% fetal calf serum at 37° C. in a 5% CO2 atmosphere. The MCF7 cells are treated with the test compounds 6, 8, 14, 22, 27, 29, 30, 31, 36 and 38 at concentrations from 1 μM to 25 μM to test the effect of these compounds on MCF7 cell growth for 10 days. The control assay is conducted with MCF7 cells under the same assay conditions except that no test compound is added. Treated cells are examined under a Nikon TS100 inverted microscope and photographed for morphological changes.

[2] = MCF-7, tested compound concentration 1 μM
[3] = MCF-7, tested compound concentration 5 μM
[4] = MCF-7, tested compound concentration 10 μM
[5] = MCF-7, tested compound concentration 15 μM
[6] = MCF-7, tested compound concentration 25 μM

| Compound | inhibition in vivo at 35 mg/kg [1] | Cell Number (×10^4) (MCF7 cells; [2]) | Cell Number (×10^4) (MCF7 cells; [3]) | Cell Number (×10^4) (MCF7 cells; [4]) | Cell Number (×10^4) (MCF7 cells; [5]) | Cell Number (×10^4) (MCF7 cells; [6]) |
| --- | --- | --- | --- | --- | --- | --- |
| CC/C(=C(\c1ccccc1)c1ccc(OCCN(C)C)cc1)c1ccccc1 [Tamoxifen, reference compound] | 40 to 50% |  |  |  |  |  |
| CC(C)=CCc1c(O)ccc2c(=O)cc(-c3ccc(C)cc3)oc12 [Compound 30, 7-hydroxy-8-(3-methylbut-2-enyl)-2-(4-methylphenyl)-4H-chromen-4-one] |  | 21.1 ×10^4 | 10.8 ×10^4 | 5.8 ×10^4 | 3.6 ×10^4 | 1.5 ×10^4 |
| COc1ccc(-c2cc(=O)c3c(O)cc(O)c(CC=C(C)C)c3o2)cc1Cl [Compound 27, 2-(3-chloro-4-methoxyphenyl)-5,7-dihydroxy-8-(3-methylbut-2-enyl)-4H-chromen-4-one] |  | 59.4 ×10^4 | 45.2 ×10^4 | 5.4 ×10^4 | 1.05 ×10^4 | 0 ×10^4 |
| CC(C)=CCc1c(O)ccc2c(=O)cc(-c3ccc(F)cc3)oc12 [Compound 31, 2-(4-fluorophenyl)-7-hydroxy-8-(3-methylbut-2-enyl)-4H-chromen-4-one] |  | 24.0 ×10^4 | 25.5 ×10^4 | 27.25 ×10^4 | 9.6 ×10^4 | 7.5 ×10^4 |
| CC(C)=CCc1c(O)ccc2c(=O)cc(-c3ccc(C(F)(F)F)cc3)oc12 [Compound 29, 2-(4-(trifluoromethyl)phenyl)-7-hydroxy-8-(3-methylbut-2-enyl)-4H-chromen-4-one] |  | 27.9 ×10^4 | 30.1 ×10^4 | 24.3 ×10^4 | 23.4 ×10^4 | 12.3 ×10^4 |
| CC(C)=CCc1c(O)cc(O)c2c(=O)cc(-c3ccc(Cl)cc3)oc12 [Compound 22, 2-(4-chlorophenyl)-5,7-dihydroxy-8-(3-methylbut-2-enyl)-4H-chromen-4-one] | 66% | 39.0 ×10^4 | 21.6 ×10^4 | 15.6 ×10^4 | 4.2 ×10^4 | 0.6 ×10^4 |
| COc1ccc(-c2oc3c(CC=C(C)C)c(O)cc(O)c3c(=O)c2OC)cc1OC [Compound 5, 5,7-dihydroxy-3-methoxy-2-(3,4-dimethoxyphenyl)-8-(3-methylbut-2-enyl)-4H-chromen-4-one] | 26% |  |  |  |  |  |
| CC(C)=CCc1c(O)ccc2c(=O)cc(-c3ccncc3)oc12 [Compound 36, 7-hydroxy-8-(3-methylbut-2-enyl)-2-(pyridin-4-yl)-4H-chromen-4-one] | 56% | 25.6 ×10^4 | 14.8 ×10^4 | 10.65 ×10^4 | 3.65 ×10^4 | 1.4 ×10^4 |
| CC(C)=CCc1c(O)ccc2c(=O)cc(-c3cccnc3)oc12 [Compound 38, 7-hydroxy-8-(3-methylbut-2-enyl)-2-(pyridin-3-yl)-4H-chromen-4-one] | 24% | 27.8 ×10^4 | 19.66 ×10^4 | 13.8 ×10^4 | 10.1 ×10^4 | 2.6 ×10^4 |
| COc1c(-c2ccc(Cl)cc2)oc2c(CC=C(C)C)c(O)cc(O)c2c1=O [Compound 14, 2-(4-chlorophenyl)-5,7-dihydroxy-3-methoxy-8-(3-methylbut-2-enyl)-4H-chromen-4-one] | 37% | 30.05 ×10^4 | 14.54 ×10^4 | 2.51 ×10^4 | 0 ×10^4 | 0 ×10^4 |
| COc1ccc(-c2oc3c(CCC(C)(C)N)c(O)cc(O)c3c(=O)c2O)cc1 [Compound 8, 8-(3-amino-3-methylbutyl)-3,5,7-trihydroxy-2-(4-methoxyphenyl)-4H-chromen-4-one] | 62% | 28.75 ×10^4 | 15.35 ×10^4 | 10.1 ×10^4 | 6.45 ×10^4 | 0.25 ×10^4 |
| COc1ccc(-c2oc3c(CCC(C)(C)O)c(O)cc(O)c3c(=O)c2OC)cc1OC [Compound 6, 5,7-dihydroxy-8-(3-hydroxy-3-methylbutyl)-3-methoxy-2-(3,4-dimethoxyphenyl)-4H-chromen-4-one] | 44% | 18.35 ×10^4 | 8.97 ×10^4 | 3.95 ×10^4 | 3.9 ×10^4 | 3.87 ×10^4 |
